Reference: patent US20060247165A1, “Methods and compositions for encapsulation of cells” (priority 2005, published 2006)
Residues, ends and D or L forms follow the SMILES beside them. *: point of attachment. Butanoyl(4-pyren-1-yl) = O=C(CCCc1ccc2ccc3cccc4ccc1c2c34)*; Palmitoyl = CCCCCCCCCCCCCCCC(=O)*

Experiments:
[1] = tested on: spinal cord; conditions: rat, in vivo
Protocol: Spinal Cord Injection Procedure. Rats were anesthetized using 45 mg/kg Pentobarbital (NEMBUTAL). A laminectomy was performed to expose spinal segment T13 and a stereotaxic micromanipulator (Kopf Instruments) with a Hamilton syringe attached to a 32 gauge needle was used to inject 6 μl at 333 nl/sec of isoosmotic glucose (vehicle) or peptide amphiphile into the spinal cord at T10 at a depth of 1.5 mm. The needle was kept inside the site of injection for 2 minutes after each injection in order to allow the IKVAV-PA to gel without disturbance.

[2] = tested on: injured spinal cord; test: Stability of fluorescent peptide amphiphile gel in injured spinal cord; type: in vivo, mouse
Description: Mouse spinal cord injuries, amphiphile injections and animal care. All animal care and surgical interventions were undertaken in strict accordance with the Public Health Service Policy on Humane Care and Use of Laboratory Animals, Guide for the Care and Use of Laboratory Animals (Institute of Laboratory Animal Resources, National Research Council, 1996). The Institutional Animal Care and Use Committee approved of all operative procedures. Female, adult 129 SvJ mice (10 weeks old; Jackson Labs, USA) were anesthetized using avertin intraperitoneally. A laminectomy was performed and the spinal cord was compressed dorsoventrally at T10 by the extradural application of a modified Kerr-Lougheed aneurysm clip for 1 min (FEJOTA mouse clip, University Health Network, Canada). The skin was sutured using AUTOCLIP (9 mm, Becton Dickinson). Post-operatively, animals were kept under a heat-lamp to maintain body temperature. […]
Peptide amphiphile solution or vehicle was injected 24 hours after the spinal cord injury using borosilicate glass capillary micropipettes (Sutter Instruments) (OD: 100 μm). […] The micropipette was manually inserted to a depth of 750 μm measured from the dorsal surface of the cord and 2.5 μl of the diluted amphiphile solution or vehicle was injected at the rate of 2.5 μl/min. […]

[3] = tested on: neural progenitor cells (NPCs); test: Immunocytochemistry of NPC differentiation (β-tubulin III neurons, GFAP astrocytes) in 3D scaffolds; type: cell-based, mouse
Protocol: (§1) Cell Culture and In Vitro Encapsulation in IKVAV-PA nano-networks. Neural progenitor cells (NPCs) were cultured as previously described (See, e.g., Zhu et al., J. Neurosci. Res. 59, 312 (2000)). Briefly, the cortices of E13 mouse embryos were dissected and plated on un-treated petri dishes in DMEM/F12 media supplemented with bFGF (10 ng/ml). After four days, mechanically and enzymatically dissociated NPCs and undissociated neurospheres (e.g., undissociated NPC aggregates) were plated onto appropriate substrates (e.g., encapsulated in IKVAV-peptide amphiphile (PA), EQS-PA, or alginate gels, or cultured on laminin, poly-D-lysine, or IKVAV peptide coated cover slips). In all cases this was taken as 0 days in vitro. […]
(§2) Immunocytochemistry. […] Cell imaging was done with a high resolution Cool Snap camera attached to a Nikon TE-2000 fluorescence microscope interfaced with a PC running MetaView imaging software, or an Axiocam camera attached to a Zeiss Axiovert 200 fluorescence microscope interfaced with a PC running AxioVision imaging software.
(§3) Cell Counts. Randomly selected fields of view were imaged for different experimental conditions and cells counted using ImageJ (Scion Corporation) morphometric analysis software. […]

[4] = tested on: neural progenitor cells (NPCs); test: NPC differentiation on two-dimensional coated substrates; type: cell-based, mouse; conditions: for differentiation into neurons on 2D substrate: cells plated for 1 day
Protocol: Two-dimensional cultures. For IKVAV peptide experiments, the same 12 mm glass coverslips used for the three-dimensional experiments were soaked in ethanol to encourage hydrophilicity, then spin-coated with 50 μL of a 1 mg/mL IKVAV peptide solution. For IKVAV-PA experiments, the coverslips were coated with PDL (e.g., to encourage adsorption) and subsequently with IKVAV-PA solution. In both cases, the cover slips were allowed to dry overnight and then washed three times with distilled water to remove weakly adherent material before the addition of cell suspension.
NPC differentiation on a two dimensional (2D) substrate coated with IKVAV-PA nanofibers was investigated.

[5] = tested on: neural progenitor cells (NPCs); test: Cell body area and neurite length of neurons differentiated from NPCs; type: cell-based, mouse; conditions: after 1 day
Protocol: as §1, §2, §3

CCCCCCCCCCCCCCCC(=O)N[C@@H](C)C(=O)N[C@@H](C)C(=O)N[C@@H](C)C(=O)N[C@@H](C)C(=O)NCC(=O)NCC(=O)NCC(=O)N[C@@H](CCC(=O)O)C(=O)N[C@H](C(=O)N[C@@H](CCCCN)C(=O)N[C@H](C(=O)N[C@@H](C)C(=O)N[C@H](C(=O)O)C(C)C)C(C)C)[C@@H](C)CC [IKVAV-PA] (Palmitoyl-AAAAGGGEIKVAV-OH)
toxic effects after spinal cord injection [1]: no toxic effects

CC[C@H](C)[C@H](NC(=O)[C@H](CCC(=O)O)NC(=O)[C@H](C)NC(=O)[C@H](C)NC(=O)[C@H](C)NC(=O)[C@H](CC(C)C)NC(=O)[C@H](CO)NC(=O)[C@H](CC(C)C)NC(=O)[C@H](CO)NC(=O)CCCc1ccc2ccc3cccc4ccc1c2c34)C(=O)N[C@@H](CCCCN)C(=O)N[C@H](C(=O)N[C@@H](C)C(=O)N[C@H](C(=O)O)C(C)C)C(C)C [PA2] ({Butanoyl(4-pyren-1-yl)}-SLSLAAAEIKVAV-OH)
presence of gel in injured cord ([2]; 5 weeks after injection, 1% solution in isotonic glucose): remnants could still be seen | lifetime of the nanofiber scaffold in vivo ([2]; mouse, in vivo): on the order of weeks

isolucine-lysine-valine-alanine-valine [IKVAV peptide]
neuron differentiation on titration into EQS-PA scaffolds ([3]; increasing amounts of soluble peptide, 1 day): failed to induce the extent of neuron differentiation | expression of β-tubulin III and/or GFAP on 2D coated substrate [4]: nearly nonquantifiable amounts | differentiation into neurons on 2D substrate [4]: did not lead to the significant neuron differentiation

laminin
GFAP expression relative to cells cultured on nanofiber networks ([3]; coated substrates): significantly greater | neurite development [5]: had not developed neurites | differentiation into neurons on 2D substrate [4]: did not lead to the significant neuron differentiation
